Patent US9789146B1, “Synthesis of adansonia digitata nanoparticles” (KING SAUD UNIVERSITY, priority 2017, dated 2017)

Experiments:
Assay in all cases: Antimicrobial activity, diffusion agar technique
Assay type in all cases: cell-based
Details in all cases: well diameter 6.0 mm, 100 μl tested
[1] = system: Bacillis subtilis (RCMB 010068)
Procedure: (§1) The antimicrobial effect of the Adansonia digitata nanoparticles was evaluated against different gram positive and gram negative bacteria as well as fungi. The test was done using the diffusion agar technique and the well diameter was 6.0 mm (100 μl was tested). The mean zone of inhibition in mm±Standard deviation beyond well diameter (6 mm) produced on a range of environmental and clinically pathogenic microorganisms.

[2] = system: Streptococcus pneumoniae (RCMB 010011)
Procedure: as §1

[3] = system: Aspergillus fumigatus (RCMB 02567)
Procedure: as §1

[4] = system: Escherichia coli (RCMB 010054)
Procedure: as §1

CC1(C)S[C@@H]2[C@H](NC(=O)[C@H](N)c3ccccc3)C(=O)N2[C@H]1C(=O)O [Ampicillin]
mean zone of inhibition ± Standard deviation beyond well diameter [1]: 31.3 ± 1.5 mm | mean zone of inhibition ± Standard deviation beyond well diameter [2]: 21.0 ± 1.0 mm

C[C@@H]1[C@H](O)[C@@H](C)/C=C/C=C/C=C/C=C/C=C/C=C/C=C/[C@H](O[C@@H]2O[C@H](C)[C@@H](O)[C@H](N)[C@@H]2O)C[C@@H]2O[C@](O)(C[C@@H](O)C[C@@H](O)[C@H](O)CC[C@@H](O)C[C@@H](O)CC(=O)O[C@H]1C)C[C@H](O)[C@H]2C(=O)O [Amphotericin B]
mean zone of inhibition ± Standard deviation beyond well diameter [3]: 21.7 ± 1.5 mm

Gentamicin
mean zone of inhibition ± Standard deviation beyond well diameter [4]: 20.3 ± 0.58 mm
